# Starred links: 1 amine or outer side, 2 acyl side, 3 side chain; linkers in the order of their positions; H or OH if unused. Non-standard residues stand in square brackets, D forms with d. Residues, ends and D or L forms follow the SMILES beside them. *: point of attachment. C20 diacid = O=C(O)CCCCCCCCCCCCCCCCCCC(=O)*; γGlu = O=C(O)[C@H](CCC(=O)[*:2])N[*:1]; βAsp = O=C(O)[C@H](CC(=O)[*:2])N[*:1]; Hyp = O=C(O)[C@@H]1C[C@@H](O)CN1
# T1: human amylin receptors (Homo sapiens, UniProt O60896+P30988)
# T1 construct: host or cells: CHO-K1/Ga15/AMY3 cells, further stably transfected with a CRE-luciferase plasmid
# T1 sequence (P30988 25-474): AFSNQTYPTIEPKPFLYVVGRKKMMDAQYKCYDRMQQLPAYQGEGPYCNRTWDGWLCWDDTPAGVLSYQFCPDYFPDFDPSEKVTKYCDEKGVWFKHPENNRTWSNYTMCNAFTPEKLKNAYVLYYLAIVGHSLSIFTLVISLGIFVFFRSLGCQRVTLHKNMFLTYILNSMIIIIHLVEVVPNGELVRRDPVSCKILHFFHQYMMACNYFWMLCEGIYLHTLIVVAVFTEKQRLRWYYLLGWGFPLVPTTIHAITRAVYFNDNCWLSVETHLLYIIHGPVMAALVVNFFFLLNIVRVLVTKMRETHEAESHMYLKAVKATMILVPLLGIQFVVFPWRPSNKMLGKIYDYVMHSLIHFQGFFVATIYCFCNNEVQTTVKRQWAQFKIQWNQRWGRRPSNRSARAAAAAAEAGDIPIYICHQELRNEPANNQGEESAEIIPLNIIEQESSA
# T1 sequence (O60896 24-148 partner): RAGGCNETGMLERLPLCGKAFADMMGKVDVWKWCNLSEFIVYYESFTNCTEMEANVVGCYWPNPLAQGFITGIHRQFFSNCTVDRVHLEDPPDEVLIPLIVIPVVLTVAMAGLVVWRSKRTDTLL
# T2: human amylin receptor on CHO-K1/Ga15/AMY3 cells (amylin receptor/CRE-luc cell line) (human) (UniProt P30988)
# T2 sequence (looked up) 1: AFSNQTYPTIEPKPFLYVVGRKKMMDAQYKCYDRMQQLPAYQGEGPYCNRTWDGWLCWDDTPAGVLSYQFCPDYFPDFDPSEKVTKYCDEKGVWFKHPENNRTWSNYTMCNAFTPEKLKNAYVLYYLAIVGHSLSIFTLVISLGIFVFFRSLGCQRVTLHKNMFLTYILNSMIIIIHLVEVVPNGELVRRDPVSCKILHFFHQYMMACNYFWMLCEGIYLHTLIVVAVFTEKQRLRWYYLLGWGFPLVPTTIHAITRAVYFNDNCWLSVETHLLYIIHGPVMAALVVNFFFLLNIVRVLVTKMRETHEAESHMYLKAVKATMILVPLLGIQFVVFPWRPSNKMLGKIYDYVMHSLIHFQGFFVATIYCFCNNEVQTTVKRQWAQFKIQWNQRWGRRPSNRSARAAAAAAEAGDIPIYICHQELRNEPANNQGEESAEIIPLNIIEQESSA
# T2 sequence (looked up) 2: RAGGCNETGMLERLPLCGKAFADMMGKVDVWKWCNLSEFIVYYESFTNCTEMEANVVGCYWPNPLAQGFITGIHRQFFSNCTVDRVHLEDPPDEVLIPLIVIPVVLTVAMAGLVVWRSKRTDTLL
# Columns and labels:
# human amylin receptors = biological target: T1, human amylin receptors; experiment: Luciferase assay in stably transfected amylin receptor/CRE-luc CHO cell line; format: cell-based; settings: for Relative activity: EC50 ratio of Cagrilintide to the compound, Cagrilintide 100%; for EC50: amylin receptor/CRE-luc CHO cells, 24 hours incubation, luminescence
# [1] = Heat accelerated stability assay, 40° C., detection on 7 d and 28 d; format: physicochemical; settings: for Purity from the reversed phase chromatography-214 nm, 0 d / Purity from the reversed phase chromatography-214 nm, 7 d / Purity from the reversed phase chromatography-214 nm, 28 d: 1 mg/mL, pH about 7.4, 40° C.; for Change (7 d − 0 d): purity on 7 d − purity on 0 d; for Change (7 d − 0 d) / Change (28 d − 0 d): 40° C., pH about 7.4; for Change (28 d − 0 d): purity on 28 d − purity on 0 d
# Method: The derivatives (1 mg/mL) were mixed with sodium dihydrogen phosphate (1.42 mg/mL) and dissolved in ultrapure water. After adjusting pH to about 7.4 with hydrochloric acid/sodium hydroxide, the solution was filtered into a sterilized vial in a clean bench using a 0.22 μm sterile filter. The vial was then capped and placed into the stability test chamber at 40° C. Detections were made on Days 7 (7d) and 28 (28d), and during the assay, changes in the characteristics and properties of the polypeptides were observed and recorded. The sample was then centrifuged for 3 min at 10000 rpm at 4° C., and the supernatant was transferred to a liquid phase sample vial for detecting the concentration and purity of the polypeptides using liquid phase chromatography described as below.
# Conditions of the reversed phase chromatography Flow rate: 1.0 mL/min; Autosampler temperature: 15° C.; Column temperature: 25° C.; Detection wavelength: 214 nm; Mobile phase A: 100% H2O+0.05% TFA; Mobile phase B: 100% ACN; and Gradient of elution listed in Table 4: […]
# [2] = biological target: T2, human amylin receptor on CHO-K1/Ga15/AMY3 cells (amylin receptor/CRE-luc cell line) (human); experiment: cell-based or functional assay
Relative activity (human amylin receptors),EC50 (human amylin receptors),"Purity from the reversed phase chromatography-214 nm, 0 d [1]","Purity from the reversed phase chromatography-214 nm, 7 d [1]","Purity from the reversed phase chromatography-214 nm, 28 d [1]",Change (7 d − 0 d) [1],Change (28 d − 0 d) [1],"EC50 (luciferase assay, amylin receptor/CRE-luc CHO cells) [2]",Relative activity (the EC50 ratio of Cagrilintide to the compound) [2],Molecule
39%,0.066 nM,93,91.39,91.53,−1.61,−1.47,,,CC[C@H](C)[C@H](NC(=O)[C@@H]1CCCN1C(=O)[C@H](CCCCN)NC(=O)[C@H](CC(C)C)NC(=O)[C@H](CC(N)=O)NC(=O)[C@H](CC(N)=O)NC(=O)[C@H](CO)NC(=O)[C@H](CO)NC(=O)[C@H](Cc1c[nH]cn1)NC(=O)[C@H](CCCNC(=N)N)NC(=O)[C@H](CC(C)C)NC(=O)[C@H](Cc1ccccc1)NC(=O)[C@H](CC(=O)O)NC(=O)[C@H](C)NC(=O)[C@H](CC(C)C)NC(=O)[C@H](CCCNC(=N)N)NC(=O)[C@H](CCC(N)=O)NC(=O)[C@@H](NC(=O)[C@@H](NC(=O)[C@H](C)NC(=O)[C@@H](NC(=O)[C@H](CO)NC(=O)[C@H](CC(C)C)NC(=O)[C@H](CCC(N)=O)NC(=O)[C@H](CO)NC(=O)[C@H](C)NC(=O)CC[C@H](NC(=O)CCCCCCCCCCCCCCCCCCC(=O)O)C(=O)O)[C@@H](C)O)C(C)C)[C@@H](C)O)C(=O)N[C@@H](CC(C)C)C(=O)N1CCC[C@H]1C(=O)N1CCC[C@H]1C(=O)N[C@H](C(=O)N[C@@H](CC(N)=O)C(=O)N[C@H](C(=O)NCC(=O)N[C@@H](CO)C(=O)N[C@@H](CC(N)=O)C(=O)N[C@H](C(=O)N1C[C@H](O)C[C@H]1C(N)=O)[C@@H](C)O)C(C)C)[C@@H](C)O [M7] ({C20 diacid-γGlu}-ASQLSTAVTQRLADFLRHSSNNLKPILPPTNVGSNT[Hyp]-NH2)
53%,0.049 nM,86.93,86.57,87.31,−0.36,0.38,,,CC[C@H](C)[C@H](NC(=O)[C@H](CC(=O)O)NC(=O)[C@H](CCCNC(=N)N)NC(=O)[C@H](CC(=O)O)NC(=O)[C@H](CCCNC(=N)N)NC(=O)[C@H](CC(=O)O)NC(=O)[C@@H](NC(=O)[C@H](Cc1ccccc1)NC(=O)[C@H](Cc1c[nH]cn1)NC(=O)[C@H](CCCNC(=N)N)NC(=O)[C@H](CC(C)C)NC(=O)[C@H](Cc1ccccc1)NC(=O)[C@H](CC(=O)O)NC(=O)[C@H](C)NC(=O)[C@H](CC(C)C)NC(=O)[C@H](CCCNC(=N)N)NC(=O)[C@H](CCC(N)=O)NC(=O)[C@@H](NC(=O)[C@@H](NC(=O)[C@H](C)NC(=O)[C@@H](NC(=O)[C@H](CO)NC(=O)[C@H](CC(C)C)NC(=O)[C@H](CCC(N)=O)NC(=O)[C@H](CO)NC(=O)[C@H](C)NC(=O)CC[C@H](NC(=O)CCCCCCCCCCCCCCCCCCC(=O)O)C(=O)O)[C@@H](C)O)C(C)C)[C@@H](C)O)[C@@H](C)O)C(=O)N[C@@H](CC(C)C)C(=O)N1CCC[C@H]1C(=O)N1CCC[C@H]1C(=O)N[C@H](C(=O)N[C@@H](CC(N)=O)C(=O)N[C@H](C(=O)NCC(=O)N[C@@H](CO)C(=O)N[C@@H](CC(N)=O)C(=O)N[C@H](C(=O)N1CCC[C@H]1C(N)=O)[C@@H](C)O)C(C)C)[C@@H](C)O [M8] ({C20 diacid-γGlu}-ASQLSTAVTQRLADFLRHFTDRDRDILPPTNVGSNTP-NH2)
100%,0.026 nM,88.15,89.62,90.99,1.47,2.84,,,CC[C@H](C)[C@H](NC(=O)[C@@H]1CCCN1C(=O)[C@H](CCCCN)NC(=O)[C@H](CC(C)C)NC(=O)[C@H](CC(N)=O)NC(=O)[C@H](CC(N)=O)NC(=O)[C@H](CO)NC(=O)[C@H](CO)NC(=O)[C@H](Cc1c[nH]cn1)NC(=O)[C@H](CCCNC(=N)N)NC(=O)[C@H](CC(C)C)NC(=O)[C@H](Cc1ccccc1)NC(=O)[C@H](CC(=O)O)NC(=O)[C@H](C)NC(=O)[C@H](CC(C)C)NC(=O)[C@H](CCCNC(=N)N)NC(=O)[C@H](CCC(N)=O)NC(=O)[C@H](CC(C)C)NC(=O)[C@@H](NC(=O)[C@H](C)NC(=O)[C@@H](NC(=O)[C@H](CO)NC(=O)[C@H](CC(C)C)NC(=O)[C@H](CCC(N)=O)NC(=O)[C@H](CO)NC(=O)[C@H](C)NC(=O)CC[C@H](NC(=O)CCCCCCCCCCCCCCCCCCC(=O)O)C(=O)O)[C@@H](C)O)C(C)C)C(=O)N[C@@H](CC(C)C)C(=O)N1CCC[C@H]1C(=O)N1CCC[C@H]1C(=O)N[C@H](C(=O)N[C@@H](CC(N)=O)C(=O)N[C@H](C(=O)NCC(=O)N[C@@H](CO)C(=O)N[C@@H](CC(N)=O)C(=O)N[C@H](C(=O)N1C[C@H](O)C[C@H]1C(N)=O)[C@@H](C)O)C(C)C)[C@@H](C)O [M9] ({C20 diacid-γGlu}-ASQLSTAVLQRLADFLRHSSNNLKPILPPTNVGSNT[Hyp]-NH2)
,,,,,,,0.049 nM,103%,{C20 diacid}-EASQLSTAATQRLADFLRHSSNNLKPILPPTNVGSNT[Hyp]-NH2 (SMILES CC[C@H](C)[C@H](NC(=O)[C@@H]1CCCN1C(=O)[C@H](CCCCN)NC(=O)[C@H](CC(C)C)NC(=O)[C@H](CC(N)=O)NC(=O)[C@H](CC(N)=O)NC(=O)[C@H](CO)NC(=O)[C@H](CO)NC(=O)[C@H](Cc1c[nH]cn1)NC(=O)[C@H](CCCNC(=N)N)NC(=O)[C@H](CC(C)C)NC(=O)[C@H](Cc1ccccc1)NC(=O)[C@H](CC(=O)O)NC(=O)[C@H](C)NC(=O)[C@H](CC(C)C)NC(=O)[C@H](CCCNC(=N)N)NC(=O)[C@H](CCC(N)=O)NC(=O)[C@@H](NC(=O)[C@H](C)NC(=O)[C@H](C)NC(=O)[C@@H](NC(=O)[C@H](CO)NC(=O)[C@H](CC(C)C)NC(=O)[C@H](CCC(N)=O)NC(=O)[C@H](CO)NC(=O)[C@H](C)NC(=O)[C@H](CCC(=O)O)NC(=O)CCCCCCCCCCCCCCCCCCC(=O)O)[C@@H](C)O)[C@@H](C)O)C(=O)N[C@@H](CC(C)C)C(=O)N1CCC[C@H]1C(=O)N1CCC[C@H]1C(=O)N[C@H](C(=O)N[C@@H](CC(N)=O)C(=O)N[C@H](C(=O)NCC(=O)N[C@@H](CO)C(=O)N[C@@H](CC(N)=O)C(=O)N[C@H](C(=O)N1C[C@H](O)C[C@H]1C(N)=O)[C@@H](C)O)C(C)C)[C@@H](C)O) [M26]
,,,,,,,0.064 nM,78%,{C20 diacid-βAsp}-ASQLSTAATQRLADFLRHSSNNLKPILPPTNVGSNT[Hyp]-NH2 (SMILES CC[C@H](C)[C@H](NC(=O)[C@@H]1CCCN1C(=O)[C@H](CCCCN)NC(=O)[C@H](CC(C)C)NC(=O)[C@H](CC(N)=O)NC(=O)[C@H](CC(N)=O)NC(=O)[C@H](CO)NC(=O)[C@H](CO)NC(=O)[C@H](Cc1c[nH]cn1)NC(=O)[C@H](CCCNC(=N)N)NC(=O)[C@H](CC(C)C)NC(=O)[C@H](Cc1ccccc1)NC(=O)[C@H](CC(=O)O)NC(=O)[C@H](C)NC(=O)[C@H](CC(C)C)NC(=O)[C@H](CCCNC(=N)N)NC(=O)[C@H](CCC(N)=O)NC(=O)[C@@H](NC(=O)[C@H](C)NC(=O)[C@H](C)NC(=O)[C@@H](NC(=O)[C@H](CO)NC(=O)[C@H](CC(C)C)NC(=O)[C@H](CCC(N)=O)NC(=O)[C@H](CO)NC(=O)[C@H](C)NC(=O)C[C@H](NC(=O)CCCCCCCCCCCCCCCCCCC(=O)O)C(=O)O)[C@@H](C)O)[C@@H](C)O)C(=O)N[C@@H](CC(C)C)C(=O)N1CCC[C@H]1C(=O)N1CCC[C@H]1C(=O)N[C@H](C(=O)N[C@@H](CC(N)=O)C(=O)N[C@H](C(=O)NCC(=O)N[C@@H](CO)C(=O)N[C@@H](CC(N)=O)C(=O)N[C@H](C(=O)N1C[C@H](O)C[C@H]1C(N)=O)[C@@H](C)O)C(C)C)[C@@H](C)O) [M27]

# Source: patent US20260265329A1, “POLYPEPTIDE AND DERIVATIVE THEREOF, COMPOSITION, AND USE THEREOF” (HANGZHOU SCIWIND BIOSCIENCES CO., LTD., priority 2023, published 2026)
